# Measurements published in patent US9828350B2, “5,6-dihydro-2H-[1,4]oxazin-3-yl-amine derivatives useful as inhibitors of beta-secretase (BACE)” (Janssen Pharmaceutica NV, priority 2010, dated 2017).
# How the values were obtained:
# [1] = system: Abeta 1-42; assay: Cellular αLisa assay in SKNBE2 cells, Abeta 1-42; assay type: cell-based, human; details: incubated for 18 hours; for IC50: Homo sapiens, SKNBE2, 18 h, read-out: Cellular αLisa assay in SKNBE2 cells Abeta 42 pIC50 (converted)
# Protocol: (§1) Cellular αLisa Assay in SKNBE2 Cells
# (§2) In two αLisa assays the levels of Abeta total and Abeta 1-42 produced and secreted into the medium of human neuroblastoma SKNBE2 cells are quantified. The assay is based on the human neuroblastoma SKNBE2 expressing the wild type Amyloid Precursor Protein (hAPP695). The compounds are diluted and added to these cells, incubated for 18 hours and then measurements of Abeta 1-42 and Abeta total are taken. Abeta total and Abeta 1-42 are measured by sandwich αLisa. αLisa is a sandwich assay using biotinylated antibody AbN/25 attached to streptavidin coated beads and antibody Ab4G8 or cAb42/26 conjugated acceptor beads for the detection of Abeta total and Abeta 1-42 respectively. In the presence of Abeta total or Abeta 1-42, the beads come into close proximity. The excitation of the donor beads provokes the release of singlet oxygen molecules that trigger a cascade of energy transfer in the acceptor beads, resulting in light emission. Light emission is measured after 1 hour incubation (excitation at […] and emission at 615 nm).
# [2] = system: Abeta total; assay: Cellular αLisa assay in SKNBE2 cells, Abeta total; assay type: cell-based, human; details: incubated for 18 hours; for IC50: Homo sapiens, SKNBE2, 18 h, read-out: Cellular αLisa assay in SKNBE2 cells Abetatotal pIC50 (converted)
# Protocol: as §1, §2
# [3] = molecular target: recombinant BACE1 protein (Homo sapiens, UniProt P56817); assay: Biochemical FRET based assay; details: recombinant BACE1 1 μg/ml, 120 minutes at room temperature, pH 5.0; for IC50: read-out: Biochemical FRET based assay pIC50 (converted)
# Excerpt: Biochemical FRET Based Assay
# This assay is a Fluorescence Resonance Energy Transfer Assay (FRET) based assay. The substrate for this assay is an APP derived 13 amino acids peptide that contains the ‘Swedish’ Lys-Met/Asn-Leu mutation of the amyloid precursor protein (APP) beta-secretase cleavage site. This substrate also contains two fluorophores: (7-methoxycoumarin-4-yl) acetic acid (Mca) is a fluorescent donor with excitation wavelength at 320 nm and emission at 405 nm and 2,4-Dinitrophenyl (Dnp) is a proprietary quencher acceptor. […] Upon cleavage by BACE1, the fluorophore Mca is separated from the quenching group Dnp, restoring the full fluorescence yield of the donor. The increase in fluorescence is linearly related to the rate of proteolysis.
# Briefly in a 384-well format recombinant BACE1 protein in a final concentration of 1 μg/ml is incubated for 120 minutes at room temperature with […] substrate in incubation buffer (40 mM Citrate buffer pH 5.0, 0.04% PEG, 4% DMSO) in the absence or presence of compound. Next the amount of proteolysis is directly measured by fluorescence measurement at T=0 and T=120 (excitation at 320 nm and emission at 405 nm). Results are expressed in RFU (Relative Fluorescence Units), as difference between T120 and TO.
# Chain of recombinant BACE1 protein (P56817 46-501): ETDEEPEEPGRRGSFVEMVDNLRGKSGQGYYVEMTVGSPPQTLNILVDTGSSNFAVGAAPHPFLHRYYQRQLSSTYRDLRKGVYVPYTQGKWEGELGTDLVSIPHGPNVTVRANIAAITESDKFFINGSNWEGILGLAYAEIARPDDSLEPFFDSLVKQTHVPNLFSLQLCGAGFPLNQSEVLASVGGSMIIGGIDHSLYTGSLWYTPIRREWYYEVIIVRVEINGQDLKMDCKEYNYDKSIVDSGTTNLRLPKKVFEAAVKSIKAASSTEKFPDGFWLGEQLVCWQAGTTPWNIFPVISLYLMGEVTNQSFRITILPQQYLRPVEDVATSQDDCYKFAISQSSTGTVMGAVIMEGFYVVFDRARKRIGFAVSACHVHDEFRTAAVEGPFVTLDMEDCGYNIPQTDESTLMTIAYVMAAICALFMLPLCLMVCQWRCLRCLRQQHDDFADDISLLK
Structure (SMILES),Cellular αLisa assay in SKNBE2 cells Abeta 42 pIC50 [1],Cellular αLisa assay in SKNBE2 cells Abetatotal pIC50 [2],Biochemical FRET based assay pIC50 [3],IC50 [1],IC50 [2],IC50 [3]
"C[C@H]1OC[C@](C)(c2cccc(NC(=O)c3ccc(Cl)cn3)c2)N=C1N (racemic) [Compound 20, trans-rac-N-[3-(5-Amino-3,6-dimethyl-3,6-dihydro-2H-1,4-oxazin-3-yl)phenyl]-5-chloropyridine-2-carboxamide]",7.81,7.86,6.78,–,–,–
CC1(c2cccc(NC(=O)c3ccc(C#N)cc3)c2)COCC(N)=N1.Cl (racemic) [Compound 42],5.85,5.9,5.74,–,–,–
CC1(c2cc(-c3cncnc3)ccc2F)COCC(N)=N1 (racemic) [Compound 58],6.7,6.68,5.11,–,–,–
CC1(c2cc(NC(=O)c3ccc(Cl)cn3)c(F)cc2F)COCC(N)=N1 (racemic) [Compound 60],6.89,6.92,5.65,–,–,–
COc1cncc(-c2ccc(F)c(C3(C)COCC(N)=N3)c2)c1 (racemic) [Compound 63],6.94,6.9,5.46,–,–,–
CC1(c2cccc(NC(=O)c3ccc(C#N)cn3)c2)COCC(N)=N1 (racemic) [Compound 64],7.36,7.37,6.41,–,–,–
COc1cncc(-c2cc(C3(C)COCC(N)=N3)c(F)cc2F)c1 (racemic) [Compound 66],6.92,7.0,5.69,–,–,–
"C[C@H]1OC[C@@](C)(c2cccc(NC(=O)c3ccc(Cl)cn3)c2)N=C1N (racemic) [Compound 151, cis-rac-N-[3-(5-Amino-3,6-dimethyl-3,6-dihydro-2H-1,4-oxazin-3-yl)phenyl]-5-chloropyridine-2-carboxamide]",7.8,7.83,6.4,–,–,–
"C[C@@]1(c2cccc(-c3cncnc3)c2)CO[C@@](C)(C(F)(F)F)C(N)=N1 (racemic) [Compound 161, trans-rac-2,5-dimethyl-5-(3-pyrimidin-5-ylphenyl)-2-(trifluoromethyl)-5,6-dihydro-2H-1,4-oxazin-3-amine]",<5,<5,4.53,–,–,–
"C[C@]1(c2cccc(-c3cncnc3)c2)CO[C@@](C)(C(F)(F)F)C(N)=N1 (racemic) [Compound 162, cis-rac-2,5-dimethyl-5-(3-pyrimidin-5-ylphenyl)-2-(trifluoromethyl)-5,6-dihydro-2H-1,4-oxazin-3-amine]",6.1,6.14,5.21,–,–,–
"CC1(c2cccc(NC(=O)c3ccc(Cl)cn3)c2)COC(F)(C(F)(F)F)C(N)=N1 (single isomer, unassigned) [Compound 15, (R*,R*)—N-{3-[5-amino-6-fluoro-3-methyl-6-(trifluoromethyl)-3,6-dihydro-2H-1,4-oxazin-3-yl]phenyl}-5-chloropyridine-2-carboxamide]",–,–,–,0.49 µM,3.09 µM,2.75 µM
"CC1(c2cccc(NC(=O)c3ccc(C#N)cn3)c2)COCC(N)=N1 (single isomer, unassigned) [Compound 49]",5.68,5.66,4.6,–,–,–
"CC1(c2cc(-c3cncnc3)ccc2F)COCC(N)=N1 (single isomer, unassigned) [Compound 53]",5.28,<5,<4.52,–,–,–
"CC1(c2cc(-c3cncnc3)ccc2F)COCC(N)=N1 (single isomer, unassigned) [Compound 54]",6.68,6.65,5.41,–,–,–
"COc1cncc(-c2ccc(F)c(C3(C)COCC(N)=N3)c2)c1 (single isomer, unassigned) [Compound 56]",7.02,7.1,5.69,–,–,–
"COc1cnc(C(=O)Nc2cccc(C3(C)COC(F)(C(F)(F)F)C(N)=N3)c2)cn1 (single isomer, unassigned) [Compound 69]",5.13,<5,–,–,–,5.13 µM

# Continued, values first:
Cellular αLisa assay in SKNBE2 cells Abeta 42 pIC50 [1],Cellular αLisa assay in SKNBE2 cells Abetatotal pIC50 [2],Biochemical FRET based assay pIC50 [3],IC50 [1],IC50 [2],IC50 [3],Structure (SMILES)
6.29,6.29,6.01,–,–,–,"C[C@@]1(c2cc(-c3cncnc3)c(F)cc2F)N=C(N)CO[C@H]1F (racemic) [Compound 83, trans-rac-5-(2,4-difluoro-5-pyrimidin-5-ylphenyl)-6-fluoro-5-methyl-5,6-dihydro-2H-1,4-oxazin-3-amine]"
7.82,7.86,7.03,–,–,–,"C[C@@]1(c2cccc(NC(=O)c3ccc(Cl)cn3)c2)N=C(N)CO[C@H]1F (racemic) [Compound 91, trans-rac-N-[3-(5-amino-2-fluoro-3-methyl-3,6-dihydro-2H-1,4-oxazin-3-yl)phenyl]-5-chloropyridine-2-carboxamide]"
6.43,6.48,5.73,–,–,–,CC1(c2cc(-c3cc(Cl)cc(Cl)c3)ccn2)COCC(N)=N1 (racemic) [Compound 121]
5.17,5.31,5.77,–,–,–,"CC1(c2cccc(NC(=O)c3ccc(Cl)cn3)c2)COC(F)(C(F)(F)F)C(N)=N1 (single isomer, unassigned) [Compound 70]"
<5,<5,6.25,–,–,–,"CC1(c2cccc(NC(=O)c3ccc(Cl)cn3)c2)COC(F)(C(F)(F)F)C(N)=N1 (single isomer, unassigned) [Compound 71]"
–,–,–,1.23 µM,1.2 µM,8.91 µM,"CC1(c2cc(-c3cncnc3)c(F)cc2F)N=C(N)COC1F (single isomer, unassigned) [Compound 81]"
5.66,5.65,–,–,–,> 30.2 µM,"COc1cncc(-c2cccc(C3(C)N=C(N)COC3F)c2)c1 (single isomer, unassigned) [Compound 88]"
6.51,6.67,–,–,–,5.5 µM,"COc1cncc(-c2cccc(C3(C)N=C(N)COC3F)c2)c1 (single isomer, unassigned) [Compound 89]"
7.76,7.76,6.37,–,–,–,"CC1(c2cccc(NC(=O)c3ccc(Cl)cn3)c2)N=C(N)COC1F (single isomer, unassigned) [Compound 90]"
5.47,5.51,–,–,–,15.1 µM,"COc1cncc(-c2cccc(C3(C)N=C(N)COC3F)c2)c1 (single isomer, unassigned) [Compound 92]"
6.48,6.5,–,–,–,1.41 µM,"CC1(c2cccc(-c3cncnc3)c2)N=C(N)COC1F (single isomer, unassigned) [Compound 95]"
6.86,6.87,–,–,–,6.17 µM,"CC1(c2cccc(-c3cncnc3)c2)N=C(N)COC1F (single isomer, unassigned) [Compound 97]"
7.71,7.7,–,–,–,0.178 µM,"COc1cncc(-c2cccc(C3(C)N=C(N)COC3C(F)(F)F)c2)c1 (single isomer, unassigned) [Compound 101]"
